Measured values: US9550802B2, “Anti-inflammatory macrolides” (priority 2012, dated 2017)

Experiments:
[1] = system: CF human primary airway epithelial cells (CF hAEC); assay: Stimulation of chloride release (Cl efflux, SPQ fluorescence) in cystic fibrosis cells; assay type: cell-based; conditions: 10 μM; CF hAEC or non-CF (S9) cells
Protocol: CF human primary airway epithelial cells (CF hAEC) on non-CF (S9) were cultured in the presence of compound 1 or azithromycin 10 μM. Cl efflux was monitored by fluorescence of [6-methoxy-N-(3-sulfopronyl)-quinolinium (SPQ).

[2] = Titration of macrolide with organic acid in saline; assay type: physicochemical; conditions: for Vol. Added (mL) Score = 4: acid solution 10 mg/mL in saline added until fully dissolved; for End conc. macrolide: after titration
Protocol: After each addition, the mixture or solution was placed in the ultrasonic bath for 10 minutes followed by agitation for an additional 10 minutes. The mixtures were given a visual score depending on the presence of precipitate in the mixture (0 to 4, 0 being undissolved and 4 being fully-dissolved) and the pH of the supernatant fluid was measured.

[3] = Maximum solubility determination of organic salts in saline; assay type: physicochemical; conditions: for Visual Score: score 0 to 4
Protocol: The mixtures were given a visual score depending on the presence of precipitate in the mixture (Score ranges from 0 to 4, with 0 showing undissolved solid precipiate and 4 being fully-dissolved). Solubility of the salts was tested in 10 mM, 100 mM, 500 mM and 1M.

[4] = macrolide (not named) + acid equivalent of organic acid in saline, 100 mM
[5] = macrolide (not named) + acid equivalent of organic acid in saline, 500 mM
[6] = macrolide (not named) + acid equivalent of organic acid in saline, 1M

Amt acid added to dissolve ([2]; 10 mM COMPOUND 1 in saline) [mg] | Amt corr. to mol eq. ([2]; 10 mM COMPOUND 1 in saline) [mg] | mol. eq. acid (minimum mole equivalence of acid needed to dissolve) ([2]; 10 mM COMPOUND 1 in saline) [mol. eq.] | Vol. Added (mL) Score = 4 ([2]; 10 mM COMPOUND 1 in saline) [mL] | End conc. macrolide ([2]; COMPOUND 1 in saline) [mM] | End conc. macrolide ([2]; azithromycin in saline) [mM] | Amt acid added to dissolve ([2]; azithromycin, 10 mM in saline) [mg] | Amt corr. to mol eq. ([2]; azithromycin, 10 mM in saline) [mg] | mol. eq. acid (minimum mole equivalence of acid needed to dissolve) ([2]; azithromycin, 10 mM in saline) [mol. eq.] | Vol. Added (mL) Score = 4 ([2]; azithromycin, 10 mM in saline) [mL] | pH ([3]; macrolide (not named) + acid equivalent of organic acid in saline (0.9% aq. NaCl), 10 mM) | Visual Score ([3]; macrolide (not named) + acid equivalent of organic acid in saline, 10 mM) | pH [3, 4] | Visual Score [3, 4] | pH [3, 5] | Visual Score [3, 5] | pH [3, 6] | Visual Score [3, 6] | Structure (SMILES) | Cl efflux as determined by fluorescence change (SPQ) [1]
– | – | – | – | – | – | – | – | – | – | – | – | – | – | – | – | – | – | CC[C@H]1OC(=O)[C@H](C)[C@@H](O[C@H]2C[C@@](C)(OC)[C@@H](O)[C@H](C)O2)[C@H](C)[C@@H](O[C@@H]2O[C@H](C)C[C@H](N(C)C)[C@H]2O)[C@](C)(O)C[C@@H](C)CN(C)[C@H](C)[C@@H](O)[C@]1(C)O [azithromycin] | stimulate Cl efflux
4.00 | 4.00 | 0.64 | 0.40 | 9.2 | 8.7 | 8.00 | 8.00 | 1.10 | 0.80 | – | – | – | – | – | – | – | – | O=C(O)CC(=O)C(=O)O [oxaloacetatic acid] | –
8.30 | 8.30 | 1.05 | – | 10.0 | 10.0 | 6.70 | 6.70 | 0.70 | – | 6.8 | 4 | 5.5 | 4 | 8.0 | 4 | 10.0 | 2 | O=C(O)CCCCCCC(=O)O [subaric acid] | –
